Source: ChEMBL document CHEMBL1201862, “PubChem BioAssay data set” (2004)
Activity calls are given as the source filed them.

Experiments:
Streptococcus = assay: GAS UMAA2166 growth inhibition – luminescence, BacTiterGlo, counter-screen for streptokinase expression inhibitor project, dose response (AID 1915); assay type: functional, organism-based;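 also: potency for reduction of bacterial viability or growth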
[1] = Luminescence Cell-Based Dose Retest to Confirm Inhibitors of Cancer Stem Cells. [Related pubchem assays (depositor defined):AID2717, AID2721]; assay type: functional; conditions: Homo sapiens
Streptokinase A = molecular target: T1, Streptokinase A (Streptococcus pyogenes serotype M1, UniProt P10520); assay: viability-normalized secreted streptokinase activity reduction – plasminogen activation absorbance, OD405, dose response (AID 1914); assay type: functional, Streptococcus pyogenes M1 GAS;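 also: secreted streptokinase activity via plasminogen activation per viability signal from cell pellet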
T1 sequence (P10520 whole entry): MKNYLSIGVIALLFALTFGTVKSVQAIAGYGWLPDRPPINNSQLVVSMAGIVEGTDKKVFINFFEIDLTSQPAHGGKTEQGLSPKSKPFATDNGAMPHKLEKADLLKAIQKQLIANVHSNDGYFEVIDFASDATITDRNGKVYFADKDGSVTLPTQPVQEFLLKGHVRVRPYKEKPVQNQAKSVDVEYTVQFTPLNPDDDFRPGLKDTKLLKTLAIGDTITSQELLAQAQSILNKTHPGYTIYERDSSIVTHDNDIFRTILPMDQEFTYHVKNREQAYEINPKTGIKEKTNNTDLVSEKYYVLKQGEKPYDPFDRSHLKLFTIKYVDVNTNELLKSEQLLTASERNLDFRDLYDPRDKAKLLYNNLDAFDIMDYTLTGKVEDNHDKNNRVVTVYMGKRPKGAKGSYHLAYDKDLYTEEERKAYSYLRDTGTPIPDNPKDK

[2] = system: Streptococcus sp. 'group A'; assay: Streptococcus pyogenes SK(-)GAS viability under kanamycin – luminescence, BacTiterGlo, confirmation, counter-screen for streptokinase expression inhibitor project, dose response (AID 1900); assay type: functional, organism-based
[3] = reduced cellular PGC1a acetyl-lysine signal – cell-based, cherry-picked samples, dose response (AID 720514); assay type: functional;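 also: potency may reflect raised or lowered acetylation signal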
Protein skinhead-1 = molecular target: T2, Protein skinhead-1 (Caenorhabditis elegans, UniProt P34707); assay type: functional
T2 sequence (P34707 whole entry): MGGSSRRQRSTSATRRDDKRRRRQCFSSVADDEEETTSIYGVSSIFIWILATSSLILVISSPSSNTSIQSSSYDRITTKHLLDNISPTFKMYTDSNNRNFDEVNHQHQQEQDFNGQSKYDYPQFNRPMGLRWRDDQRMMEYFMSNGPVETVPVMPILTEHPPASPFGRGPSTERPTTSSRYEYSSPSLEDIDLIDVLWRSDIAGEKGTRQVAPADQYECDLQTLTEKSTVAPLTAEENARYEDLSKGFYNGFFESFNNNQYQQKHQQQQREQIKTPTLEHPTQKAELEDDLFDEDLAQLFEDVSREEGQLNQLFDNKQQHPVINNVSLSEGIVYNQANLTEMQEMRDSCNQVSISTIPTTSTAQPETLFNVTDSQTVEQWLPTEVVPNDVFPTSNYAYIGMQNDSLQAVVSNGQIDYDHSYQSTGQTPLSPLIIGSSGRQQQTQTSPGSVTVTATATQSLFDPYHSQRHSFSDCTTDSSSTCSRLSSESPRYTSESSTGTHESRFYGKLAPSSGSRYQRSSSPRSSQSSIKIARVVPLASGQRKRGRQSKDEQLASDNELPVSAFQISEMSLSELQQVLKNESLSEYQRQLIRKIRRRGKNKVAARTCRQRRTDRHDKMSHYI

[4] = general mammalian cell viability loss – inhibitor set, cherry-pick, set 2, cytotoxicity control for miR-122 modulator project, dose response (AID 720697); assay type: functional, cell-based
[5] = molecular target: Voltage-dependent T-type calcium channel subunit alpha-1H (Homo sapiens, UniProt O95180); assay type: functional;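 also: channel activity triggered by adding a high calcium stimulation buffer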
Chain of Voltage-dependent T-type calcium channel subunit alpha-1H (O95180 whole entry, the tested form may be a part): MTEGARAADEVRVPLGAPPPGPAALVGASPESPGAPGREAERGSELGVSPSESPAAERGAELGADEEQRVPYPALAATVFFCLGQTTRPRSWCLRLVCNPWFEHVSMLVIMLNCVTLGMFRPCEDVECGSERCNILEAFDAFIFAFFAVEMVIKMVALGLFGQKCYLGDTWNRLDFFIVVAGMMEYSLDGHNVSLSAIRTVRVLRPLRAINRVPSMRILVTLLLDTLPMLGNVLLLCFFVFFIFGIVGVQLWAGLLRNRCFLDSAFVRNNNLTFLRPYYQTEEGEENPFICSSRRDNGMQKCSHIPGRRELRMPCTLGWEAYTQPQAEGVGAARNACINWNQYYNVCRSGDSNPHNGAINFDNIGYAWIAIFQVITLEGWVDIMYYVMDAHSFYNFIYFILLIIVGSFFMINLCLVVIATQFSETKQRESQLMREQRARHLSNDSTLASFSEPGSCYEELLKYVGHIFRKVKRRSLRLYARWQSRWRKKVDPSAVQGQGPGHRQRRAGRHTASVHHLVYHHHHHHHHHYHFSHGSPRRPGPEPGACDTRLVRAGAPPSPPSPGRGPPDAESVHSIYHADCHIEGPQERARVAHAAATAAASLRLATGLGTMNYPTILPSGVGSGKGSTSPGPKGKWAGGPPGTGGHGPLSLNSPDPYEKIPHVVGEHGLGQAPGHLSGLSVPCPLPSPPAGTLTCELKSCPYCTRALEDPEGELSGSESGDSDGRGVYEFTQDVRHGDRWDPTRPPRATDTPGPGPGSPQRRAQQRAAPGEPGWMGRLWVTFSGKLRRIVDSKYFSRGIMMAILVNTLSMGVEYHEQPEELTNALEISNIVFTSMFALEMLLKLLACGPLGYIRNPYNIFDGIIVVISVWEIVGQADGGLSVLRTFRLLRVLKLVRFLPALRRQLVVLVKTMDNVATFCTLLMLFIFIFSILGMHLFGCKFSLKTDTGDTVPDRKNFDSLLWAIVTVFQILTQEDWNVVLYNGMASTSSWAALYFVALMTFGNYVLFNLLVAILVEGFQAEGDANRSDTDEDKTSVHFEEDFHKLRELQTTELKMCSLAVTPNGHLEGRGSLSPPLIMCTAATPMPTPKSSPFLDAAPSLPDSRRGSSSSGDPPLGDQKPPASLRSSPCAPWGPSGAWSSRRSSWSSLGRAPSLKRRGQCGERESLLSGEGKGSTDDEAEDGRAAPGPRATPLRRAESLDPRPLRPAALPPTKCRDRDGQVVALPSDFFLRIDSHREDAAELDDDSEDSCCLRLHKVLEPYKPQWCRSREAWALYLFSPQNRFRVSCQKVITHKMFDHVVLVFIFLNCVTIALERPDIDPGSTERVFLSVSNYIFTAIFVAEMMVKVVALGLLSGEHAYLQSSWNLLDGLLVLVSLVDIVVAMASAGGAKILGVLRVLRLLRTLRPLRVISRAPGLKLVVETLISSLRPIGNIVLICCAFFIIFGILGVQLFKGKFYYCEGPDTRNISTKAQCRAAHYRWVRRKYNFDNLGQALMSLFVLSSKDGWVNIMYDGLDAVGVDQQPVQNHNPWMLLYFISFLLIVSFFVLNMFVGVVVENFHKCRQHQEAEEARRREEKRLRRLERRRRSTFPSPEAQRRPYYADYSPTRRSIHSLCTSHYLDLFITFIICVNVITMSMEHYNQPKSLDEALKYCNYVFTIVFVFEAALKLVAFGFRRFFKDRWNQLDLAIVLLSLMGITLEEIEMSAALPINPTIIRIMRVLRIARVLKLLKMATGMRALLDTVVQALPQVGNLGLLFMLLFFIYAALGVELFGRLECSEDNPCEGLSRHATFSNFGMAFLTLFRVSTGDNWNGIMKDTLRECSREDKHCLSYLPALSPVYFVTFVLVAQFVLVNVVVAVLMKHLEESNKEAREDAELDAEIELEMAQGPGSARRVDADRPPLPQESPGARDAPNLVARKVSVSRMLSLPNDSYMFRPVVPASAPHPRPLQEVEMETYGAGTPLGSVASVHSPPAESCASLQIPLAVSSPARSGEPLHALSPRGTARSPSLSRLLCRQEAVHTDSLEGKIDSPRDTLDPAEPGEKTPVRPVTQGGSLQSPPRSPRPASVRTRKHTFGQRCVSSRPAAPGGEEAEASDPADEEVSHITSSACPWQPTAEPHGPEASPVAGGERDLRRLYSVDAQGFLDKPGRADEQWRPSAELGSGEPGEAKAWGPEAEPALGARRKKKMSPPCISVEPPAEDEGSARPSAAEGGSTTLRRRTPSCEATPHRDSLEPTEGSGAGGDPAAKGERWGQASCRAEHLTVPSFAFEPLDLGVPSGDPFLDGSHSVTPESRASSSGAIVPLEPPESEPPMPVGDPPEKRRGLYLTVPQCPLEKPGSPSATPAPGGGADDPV

[6] = molecular target: T3, Carboxy-terminal domain RNA polymerase II polypeptide A small phosphatase 1 (Homo sapiens, UniProt Q9GZU7); assay: CTDSP1 inhibitors, concentration-response, biochemical, absorbance readout, ultra-high-throughput screen actives (AID 540297); assay type: functional
T3 sequence (Q9GZU7 whole entry): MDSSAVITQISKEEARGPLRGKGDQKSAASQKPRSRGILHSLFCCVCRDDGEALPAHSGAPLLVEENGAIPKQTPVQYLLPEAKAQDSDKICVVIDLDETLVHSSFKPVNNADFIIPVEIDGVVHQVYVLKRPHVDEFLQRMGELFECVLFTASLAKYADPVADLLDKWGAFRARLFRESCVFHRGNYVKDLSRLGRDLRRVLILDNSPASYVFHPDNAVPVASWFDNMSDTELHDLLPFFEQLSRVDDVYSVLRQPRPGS

[7] = HIV-1 Vif–A3G interaction blockers – biochemical, TR-FRET, GST-Vif 1-94, biotin-A3G peptide, dose response retest, primary screen (AID 1117319); assay type: functional;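 also: TR-FRET signal of purified GST-Vif binding a biotinylated A3G peptide; inhibitors lower the FRET signal by blocking Vif and A3G binding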
cells [8] = assay type: functional, cell-based
cells [9] = assay type: functional, cell-based; remark: listed apart in the source
[10] = inhibition of ADAM10 peptide cleavage – biochemical, FRET peptide substrate, recombinant human ADAM10, selectivity assay for ADAM17 exosite inhibitor project, dose response (AID 743259);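 also: ADAM10 enzyme cleaving a FRET peptide substrate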
[11] = molecular target: Disintegrin and metalloproteinase domain-containing protein 17 (Homo sapiens, UniProt P78536); assay: exosite inhibitors of ADAM17, dose response, biochemical (AID 743260)
Chain of Disintegrin and metalloproteinase domain-containing protein 17 (P78536 whole entry, the tested form may be a part): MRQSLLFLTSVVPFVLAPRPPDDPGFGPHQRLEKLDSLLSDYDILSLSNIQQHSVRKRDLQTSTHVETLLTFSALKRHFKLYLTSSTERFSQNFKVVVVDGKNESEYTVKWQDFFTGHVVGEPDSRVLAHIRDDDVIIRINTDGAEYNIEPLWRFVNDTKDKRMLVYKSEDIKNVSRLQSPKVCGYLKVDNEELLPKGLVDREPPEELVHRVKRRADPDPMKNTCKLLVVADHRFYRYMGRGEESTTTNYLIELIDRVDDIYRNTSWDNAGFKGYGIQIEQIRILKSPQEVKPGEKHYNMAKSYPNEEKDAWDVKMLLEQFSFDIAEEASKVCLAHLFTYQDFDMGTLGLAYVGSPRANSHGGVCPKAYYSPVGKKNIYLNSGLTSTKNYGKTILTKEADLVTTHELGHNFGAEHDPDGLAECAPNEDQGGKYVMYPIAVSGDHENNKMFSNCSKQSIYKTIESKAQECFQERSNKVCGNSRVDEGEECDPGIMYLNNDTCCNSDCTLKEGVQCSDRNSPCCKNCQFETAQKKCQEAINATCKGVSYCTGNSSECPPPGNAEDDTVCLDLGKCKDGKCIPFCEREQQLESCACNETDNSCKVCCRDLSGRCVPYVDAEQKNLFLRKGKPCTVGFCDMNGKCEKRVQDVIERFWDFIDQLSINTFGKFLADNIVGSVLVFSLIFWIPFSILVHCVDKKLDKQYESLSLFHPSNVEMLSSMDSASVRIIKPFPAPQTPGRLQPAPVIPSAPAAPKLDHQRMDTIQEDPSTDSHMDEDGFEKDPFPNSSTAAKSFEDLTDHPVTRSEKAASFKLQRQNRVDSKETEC

[12] = molecular target: T4, Methionyl-tRNA synthetase, putative (Trypanosoma brucei brucei, UniProt Q38C91); assay type: functional, Trypanosoma brucei brucei strain 927/4 GUTat10.1
T4 sequence (Q38C91 whole entry): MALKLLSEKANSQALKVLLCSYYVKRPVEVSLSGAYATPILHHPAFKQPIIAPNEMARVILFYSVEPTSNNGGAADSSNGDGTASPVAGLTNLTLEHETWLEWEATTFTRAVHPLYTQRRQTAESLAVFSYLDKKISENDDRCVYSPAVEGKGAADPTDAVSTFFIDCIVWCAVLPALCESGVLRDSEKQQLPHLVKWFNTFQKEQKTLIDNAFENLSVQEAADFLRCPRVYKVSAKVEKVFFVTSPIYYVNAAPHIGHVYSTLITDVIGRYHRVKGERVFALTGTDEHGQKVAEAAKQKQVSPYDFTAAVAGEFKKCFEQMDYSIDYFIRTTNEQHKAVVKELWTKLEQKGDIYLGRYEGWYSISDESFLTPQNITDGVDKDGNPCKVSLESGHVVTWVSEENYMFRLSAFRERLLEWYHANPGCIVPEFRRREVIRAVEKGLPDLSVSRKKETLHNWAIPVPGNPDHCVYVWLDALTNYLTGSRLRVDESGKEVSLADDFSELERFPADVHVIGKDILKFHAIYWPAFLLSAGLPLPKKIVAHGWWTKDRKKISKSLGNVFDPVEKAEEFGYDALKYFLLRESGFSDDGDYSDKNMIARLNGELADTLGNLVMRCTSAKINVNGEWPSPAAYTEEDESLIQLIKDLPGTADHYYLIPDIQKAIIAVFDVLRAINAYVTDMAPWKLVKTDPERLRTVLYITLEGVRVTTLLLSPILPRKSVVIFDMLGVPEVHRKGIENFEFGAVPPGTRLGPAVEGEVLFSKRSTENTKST

[13] = molecular target: T4, Methionyl-tRNA synthetase, putative; assay type: functional, Trypanosoma brucei brucei strain 927/4 GUTat10.1; remark: listed apart in the source
[14] = Counterscreen for inhibitors of Trypanosoma brucei methionyl tRNA synthetase (MetRS): Luminescence-based cell-based high throughput dose response assay to identify compounds that are cytotoxic to Jurkat human T lymphocyte cells.; assay type: functional
Melanocortin receptor 4 = Melanocortin receptor 4 (Homo sapiens, UniProt P32245); assay type: functional, cell-based;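 also: Cell-based assay with luminescence read-out, confirmatory dose-response testing for agonist activity of biased ligands at MC4R; human U2OS cells with tagged receptor and beta-arrestin; potency of agonists that increase receptor coupling to beta-arrestin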
Chain of Melanocortin receptor 4 (P32245 whole entry): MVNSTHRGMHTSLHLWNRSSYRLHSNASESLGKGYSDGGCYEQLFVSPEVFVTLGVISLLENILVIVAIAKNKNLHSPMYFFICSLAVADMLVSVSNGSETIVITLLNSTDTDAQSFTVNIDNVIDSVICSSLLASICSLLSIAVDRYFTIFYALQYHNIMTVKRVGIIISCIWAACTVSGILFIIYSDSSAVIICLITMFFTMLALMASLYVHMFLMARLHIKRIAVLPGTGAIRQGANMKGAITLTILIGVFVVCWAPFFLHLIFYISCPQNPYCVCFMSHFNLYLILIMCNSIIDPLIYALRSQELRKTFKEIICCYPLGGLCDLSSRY

cells [15] = assay type: functional
[16] = molecular target: T5, Rac GTPase-activating protein 1 (Homo sapiens, UniProt Q9H0H5); assay: blockers of MgcRacGAP-driven Rac1 GTP hydrolysis – biochemical, ADP Hunter fluorescence, primary and confirmatory, confirmation (AID 624330); assay type: functional
T5 sequence (Q9H0H5 whole entry): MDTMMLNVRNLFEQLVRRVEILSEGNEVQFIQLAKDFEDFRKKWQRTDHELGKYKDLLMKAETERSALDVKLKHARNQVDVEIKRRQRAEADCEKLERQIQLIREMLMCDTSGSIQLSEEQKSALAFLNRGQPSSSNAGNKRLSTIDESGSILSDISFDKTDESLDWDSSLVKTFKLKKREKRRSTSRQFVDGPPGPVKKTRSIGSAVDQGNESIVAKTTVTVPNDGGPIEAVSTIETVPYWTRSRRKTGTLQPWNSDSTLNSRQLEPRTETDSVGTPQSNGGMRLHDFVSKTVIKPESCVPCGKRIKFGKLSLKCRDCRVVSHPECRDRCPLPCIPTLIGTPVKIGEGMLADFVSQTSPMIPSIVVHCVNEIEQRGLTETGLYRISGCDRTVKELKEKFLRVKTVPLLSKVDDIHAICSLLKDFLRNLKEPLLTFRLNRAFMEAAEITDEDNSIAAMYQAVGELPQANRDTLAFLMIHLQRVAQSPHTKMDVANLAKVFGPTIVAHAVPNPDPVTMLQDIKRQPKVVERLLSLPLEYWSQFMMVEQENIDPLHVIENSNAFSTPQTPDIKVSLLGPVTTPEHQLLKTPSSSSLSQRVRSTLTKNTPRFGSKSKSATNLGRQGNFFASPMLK

[17] = molecular target: NAD-dependent protein deacylase sirtuin-5, mitochondrial (Homo sapiens, UniProt Q9NXA8); assay: sirtuin-5 deacylation blockers, concentration series – biochemical, fluorescence imaging, cherry-pick, set 5, dose response (AID 720591);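 also: desuccinylation of succinyl peptide AMC substrate read as fluorescence after trypsin release; potency of inhibitors that lower fluorescence and may act on trypsin instead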
Chain of NAD-dependent protein deacylase sirtuin-5, mitochondrial (Q9NXA8 whole entry): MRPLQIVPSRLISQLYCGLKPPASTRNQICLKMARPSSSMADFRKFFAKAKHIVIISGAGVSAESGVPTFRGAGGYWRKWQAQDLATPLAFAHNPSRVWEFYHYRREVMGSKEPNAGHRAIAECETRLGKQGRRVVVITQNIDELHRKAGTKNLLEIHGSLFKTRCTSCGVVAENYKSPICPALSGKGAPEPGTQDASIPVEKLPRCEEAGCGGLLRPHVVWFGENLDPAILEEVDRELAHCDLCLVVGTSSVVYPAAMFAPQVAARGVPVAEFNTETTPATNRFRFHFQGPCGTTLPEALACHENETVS

O=C(Nc1ccccc1)Nc1cc(Cl)cc(Cl)c1
EC50 (Streptococcus): 48.6 µM (active) | AC50 [1]: 4.3 µM (active) | EC50 (Streptokinase A): 16.8 µM (active) | EC50 [2]: 10.6 µM (active) | AC50 [3]: 17.2 µM (active)

O=C(Nc1ccc(Cl)c(C(F)(F)F)c1)c1ccco1
IC50 (Protein skinhead-1): 45 µM (active) | AC50 [4]: 4.01 µM (active) | EC50 [5]: 10.6 µM (active)

Cn1nnnc1SCC(=O)NCc1cccc(C(=O)O)c1
AC50 [3]: 10.5 µM (active)

C=CCn1c(COc2ccc(F)cc2)nnc1SCC(=O)NC(=O)NCc1ccco1
IC50 [6]: 15.9 µM (active)

CCOC(=O)C1CCCN(C(=O)c2ccc(CS(=O)(=O)c3ccc(Br)cc3)o2)C1 (stereo not given)
IC50 [7]: > 100 µM (active)

CC(=O)Nc1ccc(NC(=O)Nc2ccccc2)cc1
IC50 (cells [8]): > 29.9 µM (inactive) | EC50 (cells [9]): > 29.9 µM (inactive)

COC(=O)C1=COC(OC2OC(CO)C(O)C(O)C2O)C2C1C=CC2(O)CO (stereo not given)
IC50 [6]: 3.19 µM (active)

O=C(NNC(=O)c1ccc(NC(=O)c2ccccc2)cc1)Nc1ccccc1
IC50 [6]: 7.38 µM (active)

CCCCc1cc(=O)oc2cc(C)cc(OC(C)C(=O)O)c12 (stereo not given)
AC50 [4]: 1.08 µM (active)

CN(C)S(=O)(=O)c1cccc(NC(=O)COC(=O)c2cccc(S(=O)(=O)N3CCc4ccccc4C3)c2)c1
IC50 [10]: > 69.5 µM (inactive) | IC50 [11]: > 69.5 µM (inactive)

O=C1N(Cc2cccnc2)C[C@@H]2C[C@@H](c3ccc4nsnc4c3)N3CCC[C@@]123
IC50 [7]: > 100 µM (active)

Cc1cccc(N2CCN(C(=O)c3ccc(C[S+]([O-])Cc4ccc(Cl)cc4)o3)CC2)c1C (stereo not given)
IC50 [10]: > 7.72 µM (active) | IC50 [11]: > 69.5 µM (inactive)

Cc1ccc(-c2c[nH]c(C(O)c3cc(Cl)cc(Cl)c3)n2)cc1 (stereo not given)
IC50 [12]: 6.3 µM (active) | IC50 [13]: 15.3 µM (inactive) | IC50 [14]: 74.7 µM (inactive)

Cc1c(NS(=O)(=O)c2cc(C(=O)NCc3cccc(Cl)c3)ccc2Cl)c(=O)n(-c2ccccc2)n1C
IC50 [12]: 26.8 µM (inactive) | IC50 [13]: 94.9 µM (inactive) | IC50 [14]: 83.3 µM (inactive)

COc1ccccc1-c1cc(NC(C)=O)c2ncc(-c3cccc(C(F)(F)F)c3)n2c1
EC50 (Melanocortin receptor 4): > 89.2 µM (inactive)

COc1ccc(-c2cc(NC(C)=O)c3ncc(-c4ccc(F)cc4)n3c2)cc1OC
EC50 (Melanocortin receptor 4): > 89.2 µM (inactive)

Cn1ccnc1Sc1ccc(/C=N/NC(=O)c2ccccc2O)cc1[N+](=O)[O-]
IC50 [7]: > 100 µM (active)

O=C(C[C@@H]1C=C[C@H](NC(=O)Cc2ccccn2)[C@@H](CO)O1)NCCc1ccccc1
IC50 (cells [8]): > 29.9 µM (inactive) | EC50 (cells [9]): > 29.9 µM (inactive)

CO[C@H]1CN(C)C(=O)c2cc(NC(=O)c3ccccc3F)ccc2OC[C@@H](C)N(C)C[C@@H]1C
AC50 [4]: 10.6 µM (active)

O=C(CSc1nnc(COc2ccccc2)n1-c1ccc(Cl)cc1)Nc1ccccc1-c1ccccc1
IC50 [10]: > 69.5 µM (inactive) | IC50 [11]: > 69.5 µM (inactive)

O=C(C/C=N\OCc1ccc([N+](=O)[O-])cc1)Nc1ccc(Cl)cc1
IC50 [12]: 1.73 µM (active) | IC50 [13]: 2.56 µM (active) | IC50 [14]: 83.3 µM (inactive) | IC50 (cells [15]): 25.5 µM (active)

O=C(CC(=O)Nc1ccc(Cl)c(Cl)c1)N/N=C/c1ccc(O)cc1
IC50 [16]: 74 µM (active) | IC50 [12]: 43.9 µM (inactive) | IC50 [13]: 25.3 µM (inactive) | IC50 [14]: 83.3 µM (inactive)

Cc1ccc(S(=O)(=O)OCC(=O)Nc2ccc(C(=O)O)c(O)c2)cc1
AC50 [17]: 4.19 µM (active) | IC50 [6]: 4.64 µM (active)
